Results on 4 compounds are retold here after ChEMBL document CHEMBL1201862, “PubChem BioAssay data set” (2004).

Active and inactive are the calls of the source. Where only a bound is given, the exact number is not on record here.

Assay [1] deals with T1, Neuropeptide Y receptor type 2 (Homo sapiens, UniProt P49146).
T1 sequence (P49146 whole entry): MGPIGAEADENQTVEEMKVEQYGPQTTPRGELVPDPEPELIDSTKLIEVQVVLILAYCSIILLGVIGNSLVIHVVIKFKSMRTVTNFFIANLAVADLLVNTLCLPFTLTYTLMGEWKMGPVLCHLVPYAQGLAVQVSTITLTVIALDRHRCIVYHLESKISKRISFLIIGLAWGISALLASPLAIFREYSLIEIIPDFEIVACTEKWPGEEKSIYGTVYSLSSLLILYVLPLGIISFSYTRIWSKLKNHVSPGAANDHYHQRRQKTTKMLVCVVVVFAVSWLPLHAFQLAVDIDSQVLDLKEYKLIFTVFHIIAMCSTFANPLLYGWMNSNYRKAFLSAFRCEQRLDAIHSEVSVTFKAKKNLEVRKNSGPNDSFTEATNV
Description: Fluorescence-based cell-based high-throughput dose response assay for agonists of NPY-Y2. [Related pubchem assays: 1703 (Screening assay (CNGC inhibitors).), 1359 (Screening assay (NPY-Y2 potentiators or agonists).), 1304 (Screening assay (NPY-Y1 potentiators or agonists).), 1710 (Screening assay (NPY-Y2 agonists).), 1791 (Summary AID.)]. Format: functional.

Assay [2] in a line: viability of uninfected HEp-2 cells – cell-based, HTS, cytotoxicity control for RSV inhibitor project, dose response (AID 2410). Format: functional. Conditions: human respiratory syncytial virus.
In another assay the test system is HEK293. The experiment in a line: Fluorescence-based counterscreen for potentiators or agonists of NPY-Y2: cell-based high-throughput dose response assay to identify inhibitors of cyclic nucleotide gated ion channel (CNGC) activity. In this assay, the parental HEK293 cell line transfected with a cyclic-nucleotide gated ion channel (CNGC)-based cAMP sensor is used to measure inhibition of isoproterenol-induced CNGC activity by test compound. Format: functional. The note with it: Homo sapiens.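 Note: stimulus is 1 µM isoproterenol at EC100 plus PDE inhibitor Ro 20-1724 at 25 µM.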

The target in assay [3] is T2, Neuropeptide Y receptor type 1 (Homo sapiens, UniProt P25929).
T2 sequence (P25929 whole entry): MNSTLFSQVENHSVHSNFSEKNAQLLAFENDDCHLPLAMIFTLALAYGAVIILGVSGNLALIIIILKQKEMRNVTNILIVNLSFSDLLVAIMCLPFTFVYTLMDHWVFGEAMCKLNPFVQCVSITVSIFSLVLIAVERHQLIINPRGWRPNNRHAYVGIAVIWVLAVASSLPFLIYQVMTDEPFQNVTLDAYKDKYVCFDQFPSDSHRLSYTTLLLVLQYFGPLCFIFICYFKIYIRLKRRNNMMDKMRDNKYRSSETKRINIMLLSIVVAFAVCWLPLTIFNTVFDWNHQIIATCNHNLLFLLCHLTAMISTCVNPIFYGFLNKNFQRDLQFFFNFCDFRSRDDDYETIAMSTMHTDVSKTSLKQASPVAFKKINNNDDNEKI
Description: Fluorescence-based counterscreen for agonists of NPY-Y2: cell-based high-throughput dose response assay for agonists of NPY-Y1. The format is functional.

Assay [4] addresses Serine/threonine-protein phosphatase PP1-alpha catalytic subunit (Homo sapiens, UniProt P62136). Description: inhibition of protein phosphatase 1 activity – biochemical, fluorescence, dose response (AID 2403).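 Note: phosphatase turnover of OMFP into fluorescent 3-O-methylfluorescein.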
In assay [5] the target is T3, Apoptotic protease-activating factor 1 (Homo sapiens, UniProt O14727).
T3 sequence (O14727 whole entry): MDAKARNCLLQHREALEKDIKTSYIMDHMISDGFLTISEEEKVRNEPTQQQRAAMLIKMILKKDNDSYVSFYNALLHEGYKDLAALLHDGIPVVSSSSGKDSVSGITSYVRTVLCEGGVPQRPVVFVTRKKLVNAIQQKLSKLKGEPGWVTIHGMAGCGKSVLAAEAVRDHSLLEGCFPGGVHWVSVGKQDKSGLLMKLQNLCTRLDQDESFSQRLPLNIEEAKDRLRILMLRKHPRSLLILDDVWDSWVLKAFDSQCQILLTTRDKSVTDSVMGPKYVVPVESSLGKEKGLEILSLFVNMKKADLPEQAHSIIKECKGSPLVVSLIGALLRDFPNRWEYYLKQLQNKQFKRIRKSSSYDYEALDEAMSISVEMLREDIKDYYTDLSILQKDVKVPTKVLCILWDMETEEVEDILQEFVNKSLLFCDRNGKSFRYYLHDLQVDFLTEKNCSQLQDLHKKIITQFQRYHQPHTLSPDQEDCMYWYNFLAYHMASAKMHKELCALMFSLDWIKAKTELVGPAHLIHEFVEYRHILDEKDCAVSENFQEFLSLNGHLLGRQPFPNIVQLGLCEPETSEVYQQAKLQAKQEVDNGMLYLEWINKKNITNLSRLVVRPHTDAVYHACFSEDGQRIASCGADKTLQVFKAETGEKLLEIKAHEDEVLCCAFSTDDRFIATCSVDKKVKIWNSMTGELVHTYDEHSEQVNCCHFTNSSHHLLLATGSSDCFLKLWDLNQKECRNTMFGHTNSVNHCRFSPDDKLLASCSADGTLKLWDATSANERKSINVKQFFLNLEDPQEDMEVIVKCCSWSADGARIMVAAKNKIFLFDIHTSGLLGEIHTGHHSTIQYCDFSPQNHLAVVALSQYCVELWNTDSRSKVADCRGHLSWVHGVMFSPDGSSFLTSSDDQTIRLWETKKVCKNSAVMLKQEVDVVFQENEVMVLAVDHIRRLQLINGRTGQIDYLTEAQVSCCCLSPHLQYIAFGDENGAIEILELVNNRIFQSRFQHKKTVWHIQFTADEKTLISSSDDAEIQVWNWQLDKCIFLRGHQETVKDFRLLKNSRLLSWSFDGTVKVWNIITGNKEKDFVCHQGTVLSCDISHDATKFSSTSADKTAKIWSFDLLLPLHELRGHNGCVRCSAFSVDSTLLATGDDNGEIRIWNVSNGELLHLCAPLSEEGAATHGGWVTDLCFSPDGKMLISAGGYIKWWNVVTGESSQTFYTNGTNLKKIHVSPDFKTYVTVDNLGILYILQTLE
The format is functional.

The subject of another assay is H4. Description: Luminescence Cell-Based Dose Response HTS to Identify Activators of 5'UTR Stem-Loop Driven Prion Protein mRNA Translation in H4 Neuroglioblastoma Cells. [Related pubchem assays: 1829 (Project Summary), 1814 (Primary HTS)]. Conditions: Homo sapiens. The format is functional.
Assay [6] is described as follows: Luminescence Cell-Based Dose Response HTS to Identify Activators of Luciferase Translation or Activity in H4 […] Cells. [Related pubchem assays: 1829 (Project Summary), 1814 (Primary HTS)]. Format: functional.
Assay [7] has as its target Serine/threonine-protein phosphatase (Homo sapiens, UniProt Q9BPW0). The experiment in a line: Counterscreen for inhibitors of PP1: fluorescence-based biochemical high throughput dose response assay to identify inhibitors of Protein Phosphatase 5 (PP5). [Related pubchem assays: 2034 (Summary (PP5 inhibitors)), 1987 (PP5 inhibitors in singlate), 2235 (PP1 inhibitors in singlate)].

Assay [8] has as its target T4, Mannose-6-phosphate isomerase (Homo sapiens, UniProt P34949).
T4 sequence (P34949 whole entry): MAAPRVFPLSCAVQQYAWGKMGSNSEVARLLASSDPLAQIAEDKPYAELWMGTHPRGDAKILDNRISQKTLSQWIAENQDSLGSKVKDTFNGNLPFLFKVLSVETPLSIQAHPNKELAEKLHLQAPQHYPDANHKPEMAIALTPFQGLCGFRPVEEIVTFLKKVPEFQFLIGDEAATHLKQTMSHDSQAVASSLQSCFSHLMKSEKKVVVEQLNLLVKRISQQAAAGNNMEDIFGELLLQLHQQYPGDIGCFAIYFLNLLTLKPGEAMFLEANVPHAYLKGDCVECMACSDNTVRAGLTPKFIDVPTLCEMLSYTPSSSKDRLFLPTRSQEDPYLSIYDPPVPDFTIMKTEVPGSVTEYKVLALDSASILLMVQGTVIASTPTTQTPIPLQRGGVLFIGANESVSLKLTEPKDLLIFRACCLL
The experiment in a line: MPI inhibition at elevated mannose 6-phosphate – biochemical, fluorescence intensity, high mannose 6-phosphate, primary screen (AID 1220).

Assay [9] can be described thus: Luminescence Cell-Based Dose Confirmation HTS to Identify Activators of 5'UTR Stem-Loop Driven Alpha-Synuclein mRNA Translation in H4 Neuroglioblastoma Cells. [Related pubchem assays: 1829 (Project Summary), 1814 (Primary HTS)]. The format is functional.
The target in assay [10] is Mothers against decapentaplegic homolog 3 (Homo sapiens, UniProt P84022). The experiment in a line: blockers of Smad3 complex formation in lysate – cell lysate, secondary confirmation, chemiluminescent ELISA, HEK293 lysate, dose response (AID 1058). The format is functional.
Mothers against decapentaplegic homolog 3, sequence (P84022 whole entry): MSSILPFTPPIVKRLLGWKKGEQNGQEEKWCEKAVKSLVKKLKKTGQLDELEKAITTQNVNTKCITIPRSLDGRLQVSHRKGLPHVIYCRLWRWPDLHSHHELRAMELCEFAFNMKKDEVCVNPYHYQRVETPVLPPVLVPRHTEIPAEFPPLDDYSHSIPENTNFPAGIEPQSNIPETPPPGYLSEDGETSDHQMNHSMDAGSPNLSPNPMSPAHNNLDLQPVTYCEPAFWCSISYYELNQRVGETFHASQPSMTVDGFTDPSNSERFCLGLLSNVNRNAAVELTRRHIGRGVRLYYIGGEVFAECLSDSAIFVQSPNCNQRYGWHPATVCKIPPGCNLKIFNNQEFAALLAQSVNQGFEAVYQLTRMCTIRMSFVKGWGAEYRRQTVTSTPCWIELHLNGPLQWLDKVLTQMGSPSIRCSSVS
Assay [11] in a line: Counterscreen for IDE inhibitors: Luminescence-based cell-based high throughput dose response assay to identify compounds that are cytotoxic to HEK cells. [Related pubchem assays: 434962 (Primary screen (IDE inhibitors in singlicate)), 449730 (Counterscreen (Cytotoxicity in triplicate)), 435028 (Confirmation (IDE inhibitors in triplicate)) …. The format is functional. The note with it: HEK293.

The target in a further assay is T5, Insulin-degrading enzyme (Homo sapiens, UniProt P14735).
T5 sequence (P14735 whole entry): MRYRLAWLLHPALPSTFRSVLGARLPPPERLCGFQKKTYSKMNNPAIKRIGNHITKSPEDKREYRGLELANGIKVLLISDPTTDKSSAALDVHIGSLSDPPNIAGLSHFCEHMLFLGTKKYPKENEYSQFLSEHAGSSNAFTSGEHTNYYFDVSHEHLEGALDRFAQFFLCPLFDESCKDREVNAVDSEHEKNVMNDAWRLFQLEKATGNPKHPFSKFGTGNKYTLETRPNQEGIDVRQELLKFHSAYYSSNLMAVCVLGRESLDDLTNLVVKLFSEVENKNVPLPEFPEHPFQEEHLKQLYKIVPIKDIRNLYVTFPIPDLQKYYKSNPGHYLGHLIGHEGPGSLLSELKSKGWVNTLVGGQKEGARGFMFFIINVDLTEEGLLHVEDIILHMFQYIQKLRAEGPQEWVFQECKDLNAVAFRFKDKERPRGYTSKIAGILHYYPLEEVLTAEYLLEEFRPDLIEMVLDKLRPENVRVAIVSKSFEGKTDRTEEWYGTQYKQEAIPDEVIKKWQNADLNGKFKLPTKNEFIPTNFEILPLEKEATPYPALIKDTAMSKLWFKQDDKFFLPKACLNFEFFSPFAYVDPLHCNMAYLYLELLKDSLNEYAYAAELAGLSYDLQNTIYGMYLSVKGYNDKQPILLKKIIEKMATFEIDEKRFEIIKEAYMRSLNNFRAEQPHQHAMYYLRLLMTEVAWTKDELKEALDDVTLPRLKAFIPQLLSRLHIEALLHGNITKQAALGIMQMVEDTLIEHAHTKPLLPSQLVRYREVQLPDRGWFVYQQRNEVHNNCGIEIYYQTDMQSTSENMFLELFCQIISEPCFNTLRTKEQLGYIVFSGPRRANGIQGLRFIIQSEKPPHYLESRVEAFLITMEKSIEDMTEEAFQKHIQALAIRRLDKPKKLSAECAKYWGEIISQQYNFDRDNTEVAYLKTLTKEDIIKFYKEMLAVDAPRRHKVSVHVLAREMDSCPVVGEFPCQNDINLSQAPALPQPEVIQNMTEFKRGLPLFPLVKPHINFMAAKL
The experiment in a line: Dose Response: Fluorescence polarization-based cell-based high throughput dose response assay for inhibitors of insulin-degrading enzyme (IDE). [Related pubchem assays: 434962 (Primary screen (IDE inhibitors in singlicate)), 449730 (Counterscreen (Cytotoxicity in triplicate)), 435028 (Confirmation (IDE inhibitors in triplicate)), 434984 (Summary …. The format is functional.

Serine/threonine-protein phosphatase PP1-alpha catalytic subunit, sequence (P62136 whole entry): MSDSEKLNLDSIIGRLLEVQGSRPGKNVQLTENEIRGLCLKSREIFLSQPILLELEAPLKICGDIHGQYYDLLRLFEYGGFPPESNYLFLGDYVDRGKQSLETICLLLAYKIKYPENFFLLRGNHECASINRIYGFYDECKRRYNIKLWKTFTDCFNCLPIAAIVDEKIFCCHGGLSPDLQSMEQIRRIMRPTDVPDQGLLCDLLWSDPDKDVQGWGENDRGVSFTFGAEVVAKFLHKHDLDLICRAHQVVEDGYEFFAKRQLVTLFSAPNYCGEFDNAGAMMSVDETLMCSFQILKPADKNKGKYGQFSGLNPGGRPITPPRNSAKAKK
Serine/threonine-protein phosphatase, sequence (Q9BPW0 whole entry): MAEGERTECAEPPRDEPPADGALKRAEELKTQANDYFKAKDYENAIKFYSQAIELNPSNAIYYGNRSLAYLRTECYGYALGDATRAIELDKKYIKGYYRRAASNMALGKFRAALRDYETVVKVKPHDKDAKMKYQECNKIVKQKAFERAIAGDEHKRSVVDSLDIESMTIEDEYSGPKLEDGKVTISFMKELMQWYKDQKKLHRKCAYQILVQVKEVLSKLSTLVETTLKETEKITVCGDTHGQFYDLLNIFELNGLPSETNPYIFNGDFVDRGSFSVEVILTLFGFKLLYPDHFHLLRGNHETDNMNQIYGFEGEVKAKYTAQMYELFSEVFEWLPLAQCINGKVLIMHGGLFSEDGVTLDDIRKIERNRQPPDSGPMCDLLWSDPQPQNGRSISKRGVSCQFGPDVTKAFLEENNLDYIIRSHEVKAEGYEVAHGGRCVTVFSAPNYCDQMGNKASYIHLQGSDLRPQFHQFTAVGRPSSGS

On to `CC(=O)Nc1ccc(-c2cc3ccccc3o2)cc1`, for which the EC50 is given as > 35.4 µM (not active) in [1], 27.4 µM (not active) in the assay on HEK293 and 28.9 µM (not active) in assay [3]. In addition, the CC50 in [2] was 28.2 µM (active).

Take `N#Cc1c(N2CCCC(O)C2)nc(N)c2c(N)nc3c(c12)CC(=O)N3C12CC3CC(CC(C3)C1)C2` (centres undefined): the IC50 was > 67 µM (not active) in assay [4], 73 µM (active) in assay [5], 29.5 µM (not active) in [7] and > 50 µM (not active) in assay [8]. Also, the results for the EC50 (with H4; in assay [6]; in assay [9]) were > 120 µM (not active), 9.64 µM (active) and 12.6 µM (active), respectively.

`COc1ccc(C(c2cc3c(cc2O)OCO3)N2CCOCC2)c(OC)c1OC` (centres undefined): the IC50 in assay [10] is 3.97 µM (not active).

`Cc1ccc(/C=N\NC(=O)/C(=C\Nc2nccc(C)n2)NC(=O)c2ccccc2)cc1`: the IC50 in [11] was > 55.7 µM (not active); on Insulin-degrading enzyme it was 5.43 µM (active).
